The values that follow come from US20090093469A1, “Phenylaminopropanol Derivatives and Methods of Their Use” (WYETH, priority 2004, published 2009).

Where a name gives a salt, the structure may show the parent alone.

For one test, the target named is T1, hNET (Homo sapiens, UniProt P23975).
T1 construct: expressed in transfected cells
T1 sequence (P23975 whole entry): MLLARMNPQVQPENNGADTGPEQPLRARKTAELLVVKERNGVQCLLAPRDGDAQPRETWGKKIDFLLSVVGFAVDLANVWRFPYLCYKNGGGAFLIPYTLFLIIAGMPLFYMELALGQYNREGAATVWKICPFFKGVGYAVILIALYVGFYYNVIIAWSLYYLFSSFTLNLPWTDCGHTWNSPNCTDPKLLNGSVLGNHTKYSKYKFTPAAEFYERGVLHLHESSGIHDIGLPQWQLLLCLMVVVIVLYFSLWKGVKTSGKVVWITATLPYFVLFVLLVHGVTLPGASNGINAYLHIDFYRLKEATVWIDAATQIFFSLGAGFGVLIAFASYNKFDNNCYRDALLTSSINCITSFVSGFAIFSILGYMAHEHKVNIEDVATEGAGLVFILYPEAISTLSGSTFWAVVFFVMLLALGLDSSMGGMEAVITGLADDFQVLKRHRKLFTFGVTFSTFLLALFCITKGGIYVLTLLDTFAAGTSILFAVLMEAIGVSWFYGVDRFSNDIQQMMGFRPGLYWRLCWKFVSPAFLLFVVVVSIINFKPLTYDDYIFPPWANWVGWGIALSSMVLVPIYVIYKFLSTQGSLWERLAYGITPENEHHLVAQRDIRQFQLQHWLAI
The test can be described thus: Norepinephrine (NE) uptake assay in MDCK-Net6 cells stably transfected with human hNET. Format: cell-based. The settings on record: MDCK-Net6, read-out: % Inhibition @ 1 μM (hNET).
In the case of `CNC[C@@H](O)[C@H](c1cccc(F)c1)n1ccc2cc(C)ccc21` [Example 92, ((1S,2R)-1-(3-fluorophenyl)-3-(methylamino)-1-(5-methyl-1H-indol-1-yl)propan-2-ol hydrochloride], the inhibition at 1 µM was 85.8%. As for `CNC[C@@H](O)[C@H](c1cccc(F)c1)n1ccc2c(C)cccc21` [Example 96, ((1S,2R)-1-(3-fluorophenyl)-3-(methylamino)-1-(4-methyl-1H-indol-1-yl)propan-2-ol hydrochloride], the inhibition at 1 µM stood at 98.2%.

In the case of `CCc1cn([C@@H](c2cccc(F)c2)[C@H](O)CNC)c2ccccc12` [Example 97, ((1S,2R)-1-(3-fluorophenyl)-3-(methylamino)-1-(3-ethyl-1H-indol-1-yl)propan-2-ol hydrochloride], the inhibition at 1 µM amounted to 99.6%.

Still in this test, the particulars now being: test compound 1 μM; [3H]NE uptake, MDCK-Net6 cells; read-out: % Inhibition @ 1 μM (hNET).
`CNC[C@@H](O)[C@H](c1ccccc1)n1ccc2c(C)cccc21` [Example 94, (1S,2R)-3-(methylamino)-1-(4-methyl-1H-indol-1-yl)-1-phenylpropan-2-ol hydrochloride]: the inhibition at 1 µM is 94.9%.

As to `CNC[C@@H](O)[C@H](c1ccccc1)n1ccc2cc(C)ccc21` [Example 95, (1S,2R)-3-(methylamino)-1-(5-methyl-1H-indol-1-yl)-1-phenylpropan-2-ol hydrochloride], the inhibition at 1 µM was 97.6%. Consider `CNC[C@@H](O)[C@H](c1cccc(F)c1)n1cc(-c2ccccc2)c2ccccc21` [Example 98, ((1S,2R)-1-(3-fluorophenyl)-3-(methylamino)-1-(3-phenyl-1H-indol-1-yl)propan-2-ol hydrochloride], for which the inhibition at 1 µM was 99.1%.

For the compound `CNC[C@@H](O)[C@H](c1ccccc1)N1C(=O)C(C)(C)c2cccc(F)c21` [Example 99, 7-fluoro-1-[(1S,2R)-2-hydroxy-3-(methylamino)-1-phenylpropyl]-3,3-dimethyl-1,3-dihydro-2H-indol-2-one hydrochloride], the inhibition at 1 µM turned out to be 98.1%.

With `CNC[C@@H](O)[C@H](c1ccccc1)N1C(=O)C(C)(C)c2ccccc21` [Example 100, 1-[(1S,2R)-2-hydroxy-3-(methylamino)-1-phenylpropyl]-3,3-dimethyl-1,3-dihydro-2H-indol-2-one hydrochloride], the inhibition at 1 µM amounted to 94.2%. The same measure, in the same setting: then `CNC[C@@H](O)[C@H](c1cccc(F)c1)N1C(=O)C(C)(C)c2cccc(F)c21` [Example 101, 7-fluoro-1-[(1S,2R)-1-(3-fluorophenyl)-2-hydroxy-3-(methylamino)propyl]-3,3-dimethyl-1,3-dihydro-2H-indol-2-one hydrochloride], with 98.6%. As for `CNC[C@@H](O)[C@@H](c1cccs1)n1ccc2ccccc21` [Example 102, (1S,2R)-1-(1H-indol-1-yl)-3-(methylamino)-1-(2-thienyl)propan-2-ol hydrochloride], the inhibition at 1 µM turned out to be 95.3%. Turning to `CNC[C@@H](O)[C@H](c1cccs1)n1ccc2ccccc21` [Example 103, (1R,2R)-1-(1H-indol-1-yl)-3-(methylamino)-1-(2-thienyl)propan-2-ol hydrochloride], the inhibition at 1 µM worked out at 86.1%. For `CNC[C@@H](O)[C@H](c1ccccc1)N1C(=O)C2(CCCCC2)c2ccccc21` [Example 104, 1′-[(1S,2R)-2-hydroxy-3-(methylamino)-1-phenylpropyl]spiro[cyclo-hexane-1,3′-indol]-2′(1′H)-one hydrochloride], the inhibition at 1 µM was found to be 99.4%. Take `O[C@@H]([C@@H]1CCCN1)[C@@H](c1cccc(F)c1)n1ccc2ccccc21` [Example 105, (1S,2R)-2-(3-fluorophenyl)-2-(1H-indol-1-yl)-1-[(2S)-pyrrolidin-2-yl]ethanol hydrochloride]: the inhibition at 1 µM turned out to be 92.6%.

As to `O[C@H]([C@@H]1CCCN1)[C@H](c1cccc(F)c1)n1ccc2ccccc21` [Example 106, (1R,2S)-2-(3-fluorophenyl)-2-(1H-indol-1-yl)-1-[(2S)-pyrrolidin-2-yl]ethanol hydrochloride], the inhibition at 1 µM stood at 85.8%.

Regarding `CNC[C@@H](O)[C@H](c1ccccc1)N1C(=O)C2(CCC2)c2ccccc21` [Example 107, 1′-[(1S,2R)-2-hydroxy-3-(methylamino)-1-phenylpropyl]spiro[cyclo-butane-1,3′-indol]-2′(1′H)-one hydrochloride], the inhibition at 1 µM turned out to be 96.6%. Same read-out and setting: under `CNC[C@@H](O)[C@H](c1ccccc1)N1C(=O)C2(CCCC2)c2ccccc21` [Example 108, 1′-[(1S,2R)-2-hydroxy-3-(methylamino)-1-phenylpropyl]spiro-[cyclopentane-1,3′-indol]-2′(1′H)-one hydrochloride] stands 98.7%; under `CNC[C@@H](O)[C@H](c1ccccc1)N1C(=O)C2(CC2)c2ccccc21` [Example 109, 1′-[(1S,2R)-2-hydroxy-3-(methylamino)-1-phenylpropyl]spiro-[cyclopropane-1,3′-indol]-2′(1′H)-one hydrochloride], 94.7%; under `CNC[C@@H](O)[C@H](c1ccccc1)N1C(=O)C(C)(C)c2cc(F)ccc21` [Example 110, 5-fluoro-1-[(1S,2R)-2-hydroxy-3-(methylamino)-1-phenylpropyl]-3,3-dimethyl-1,3-dihydro-2H-indol-2-one hydrochloride], 86.4%. On to `CNC[C@@H](O)[C@H](c1ccccc1)N1C(=O)C2(CCCCC2)c2cccc(F)c21` [Example 112, 7′-fluoro-1′-[(1S,2R)-2-hydroxy-3-(methylamino)-1-phenylpropyl]-spiro[cyclohexane-1,3′-indol]-2′(1′H)-one hydrochloride], for which the inhibition at 1 µM was 100%.

Turning to `CNC[C@@H](O)[C@H](c1ccccc1)N1C(=O)C2(CCCCC2)c2cc(Br)ccc21` [Example 113, 5′-bromo-1′-[(1S,2R)-2-hydroxy-3-(methylamino)-1-phenylpropyl]-spiro[cyclohexane-1,3′-indol]-2′(1′H)-one hydrochloride], the inhibition at 1 µM was found to be 99.7%. As to `CNC[C@@H](O)[C@H](c1cccc(F)c1)n1cc(-c2ccccc2F)c2ccccc21` [Example 114, (1S,2R)-1-(3-fluorophenyl)-1-[3-(2-fluorophenyl)-1H-indol-1-yl]-3-(methylamino)propan-2-ol hydrochloride], the inhibition at 1 µM stood at 100%. For `CNC[C@@H](O)[C@H](c1cccc(F)c1)n1cc(-c2ccc(Cl)c(Cl)c2)c2ccccc21` [Example 115, (1S,2R)-1-[3-(3,4-dichlorophenyl)-1H-indol-1-yl]-1-(3-fluorophenyl)-3-(methylamino)propan-2-ol hydrochloride], the inhibition at 1 µM was determined as 23.9%.

For the compound `CNC[C@@H](O)[C@H](c1cccc(F)c1)n1cc(-c2cccc(F)c2)c2ccccc21` [Example 116, (1S,2R)-1-(3-fluorophenyl)-1-[3-(3-fluorophenyl)-1H-indol-1-yl]-3-(methylamino)propan-2-ol hydrochloride], the inhibition at 1 µM was 97.3%.

With `CNC[C@@H](O)[C@H](c1ccccc1)n1cc(C)c2cc(F)ccc21` [Example 117, (1S,2R)-1-(5-fluoro-3-methyl-1H-indol-1-yl)-3-(methylamino)-1-phenylpropan-2-ol hydrochloride], the inhibition at 1 µM was 95.3%. In the case of `CNC[C@@H](O)[C@H](c1ccccc1)n1cc(C)c2cc(Cl)ccc21` [Example 119, (1S,2R)-1-(5-chloro-3-methyl-1H-indol-1-yl)-3-(methylamino)-1-phenylpropan-2-ol hydrochloride], the inhibition at 1 µM stood at 96.3%.
